Assay results taken from patent publication US9757404B2, “Combination comprising an omega-3 fatty acid composition and an SGLT2 inhibitor” (AstraZeneca AB, priority 2014, dated 2017).

Experiments:
[1] = system: diet-induced obese mouse model of fatty liver disease and NASH (DIO-NASH); assay: Mouse DIO-NASH model, 6 weeks treatment, hepatic pathology score (Example 3); type: in vivo, C57Bl/6J male mice; conditions: DIO-NASH mice; for NAFLD activity score, post-hoc test comparing the control group with the other groups (FIG. 1): Kruskal-Wallis p <0.01; for NAFLD activity score, post-hoc test comparing the control group with the other groups (FIG. 1) / fibrosis stage, Kruskal-Wallis test vs vehicle control (FIG. 2): p<0.05 regarded as significant; for fibrosis stage, Kruskal-Wallis test vs vehicle control (FIG. 2): p=0.4
From the text: Effect of SGLT-2 Inhibitors and Epanova Alone or in Combination on Metabolic Parameters and Hepatic Pathology Score in a Mouse DIO-NASH Model
Determine the effect of 6 weeks treatment with the SGLT2 inhibitors dapagliflozin, ipragliflozin and canagliflozin and the Omega-3 compound Epanova alone or in combination on NAFLD Activity Score (NAS) including fibrosis stage (post versus pre-treatment) in a diet-induced obese mouse model of fatty liver disease and NASH (DIO-NASH).
At 5 weeks of age, C57Bl/6J male mice are purchased from JanVier, France. During the acclimatization and diet-induction period, the mice are group housed five per cage under a 12:12 light dark cycle (lights on from 0400-1600 h) at controlled temperature conditions (22±1° C.; 50±10% relative humidity). Throughout the study period, the mice have ad libitum access to NASH diet (DIO-NASH) (D09100301, Research Diet) (40% fat (18% trans-fat)), 40% carbohydrates (20% fructose) and 2% cholesterol). The animals are kept on the diet for 28 weeks before experimentation. In addition, a sub-set of animals are given normal chow (Altromin 1324, Brogaarden) to be included as a lean control group (LEAN-CHOW). During post-OP recovery and study period, animals will be single-housed. BW will be recorded once daily during the study period. 24 h food and water intake will be recorded once weekly during the study period.
During the DIO-NASH diet-induction period, BW will be monitored once monthly. After 25 weeks of diet-induction, a liver biopsy will be obtained for hepatic progression of fibrosis and steatosis evaluated by histochemical analysis, and subsequently NAFLD Activity Score including fibrosis stage and optional gene expression analysis (see below). At day −6, animals are stratified into treatment groups according to levels of fibrosis (% collagen) followed by randomization based on 1) liver fibrosis and 2) BW. In addition, liver steatosis (% lipid) will be analyzed. At day −5, animals are EchoMRI scanned for body composition analysis.
Dosing volume is 5-20 ml/kg (TBD). Route of administration is per oral (PO) dosing by gavage. Dosing frequency will be once daily (QD). Day 0 is the first day of dosing. Animals are dosed with compound(s) and vehicle between 2-4 PM. Animals are dosed for 42 days. Last dose will be administered the day before termination (study day 41).
A liver pre-biopsy and terminal liver tissue from the left lateral lobe will be collected for NAS and assessment of fibrosis stage by use of clinical criteria outlined by Kleiner and colleagues (Design and validation of a histological scoring system for nonalcoholic fatty liver disease, Kleiner et al, Hepatology 41; 2005). The NAS is the sum of steatosis, lobular inflammation and hepatocellular ballooning scores:
To assess hepatic steatosis, ballooning degeneration, fibrosis and inflammation sections are stained with H&E, Sirius Red, CK18 (ballooning) and Galectin-3 (macrophages), respectively) followed by analysis with Visiomorph software (Visiopharm, Copenhagen, Denmark). Biopsy assessment of hepatic steatosis, fibrosis or inflammation will be described as percentage of total area using a protocol designed for the specific purpose.
Results are presented as mean±SEM (standard error of the mean) unless otherwise stated. Statistical evaluation of the data is carried out using Student's unpaired t-test or two-way ANOVA for comparison of LEAN-CHOW control versus DIO-NASH Vehicle. For comparison of DIO-NASH groups, one-way and two-way ANOVA are being applied where appropriate. Post-hoc analysis (Dunnett/Bonferroni) in cases with statistical significance is performed (p<0.05 considered significant).

diabetic population = conditions: cited from earlier work
human SGLT2 (hSGLT2) = human SGLT2 (hSGLT2) (Homo sapiens, UniProt P31639); conditions: stated property, no value given; cited from earlier work
Chain of human SGLT2 (hSGLT2) (P31639 whole entry): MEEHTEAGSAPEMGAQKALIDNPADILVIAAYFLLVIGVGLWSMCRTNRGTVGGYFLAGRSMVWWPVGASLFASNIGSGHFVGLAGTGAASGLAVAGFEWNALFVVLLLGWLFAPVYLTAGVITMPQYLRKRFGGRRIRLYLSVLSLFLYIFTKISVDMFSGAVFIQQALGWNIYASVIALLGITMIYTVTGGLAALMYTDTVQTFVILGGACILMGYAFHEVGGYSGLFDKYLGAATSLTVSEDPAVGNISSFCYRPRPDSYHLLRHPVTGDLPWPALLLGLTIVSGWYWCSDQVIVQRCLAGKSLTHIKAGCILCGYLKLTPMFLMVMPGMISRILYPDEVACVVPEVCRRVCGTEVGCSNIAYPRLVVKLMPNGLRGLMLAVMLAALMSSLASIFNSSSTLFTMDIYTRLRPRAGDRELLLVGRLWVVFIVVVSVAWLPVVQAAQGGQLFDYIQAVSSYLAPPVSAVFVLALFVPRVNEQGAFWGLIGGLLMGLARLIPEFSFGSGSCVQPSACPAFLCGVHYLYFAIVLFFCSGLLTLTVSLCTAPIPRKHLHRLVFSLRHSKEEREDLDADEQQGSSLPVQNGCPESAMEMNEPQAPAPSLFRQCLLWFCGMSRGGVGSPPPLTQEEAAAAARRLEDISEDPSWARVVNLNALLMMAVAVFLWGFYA

[2] = system: VCU (Virginia Commonwealth University) NASH mouse model; assay: VCU NASH mouse model, 4 weeks treatment, liver histology (Example 4); type: in vivo; conditions: VCU NASH mice, 4 weeks daily gavage; dapagliflozin 1 mg/kg/d, Epanova 600 mg/kg/d
Method: A further pre-clinical mouse study was carried out according to the Experimental plan described below:
Model: VCU (Virginia Commonwealth University) NASH mouse model; inbred C57bI6J/×129SI/SvlmJ given high fat, cholesterol, fructose and glucose diet for 16 weeks before starting pharmacological treatment.
Treatment: drugs will be administered by daily gavage. Gavage volume will not exceed 3 mL/Kg. vehicles will be olive oil and water. Epanova and dapagliflozin will be administered by daily gavage in one syringe.
Run-in: 16 weeks in high fat, cholesterol, fructose and glucose diet one week with vehicle gavage.
T=0 weeks: the mice will be matched based on body weight. The mice will be divided into 4 groups of 12 animals. Vehicle gavage for one week before commencing active treatment for 4 weeks.

two mouse models of NASH = assay: Overall summary of the two pre-clinical NASH mouse studies; type: in vivo
From the text: We have investigated the effect of Epanova, dapagliflozin and the combination of the two components in two pre-clinical studies and a human clinical study, described in the Examples herein.
In the NASH mouse studies included in the present application, no changes in body weight, glucose or insulin levels or liver fat were observed, however the NASH mouse models used were not diabetic, but were obese and insulin resistant.

[3] = 6 weeks QD PO, dapagliflozin 1 mg/kg, Epanova 600 mg/kg, vs vehicle

Row | SMILES | NAFLD activity score, post-hoc test comparing the control group with the other groups (FIG. 1) [1] | fibrosis stage, Kruskal-Wallis test vs vehicle control (FIG. 2) [1] | liver fat content (diabetic population; diabetic population / diabetic patients) | body fat content (diabetic population; published studies (Kabir et al; Bolinder et al)) | selectivity for SGLT2 relative to SGLT1 (human SGLT2 (hSGLT2)) | NAFLD activity scores at the end of the study (primary effect variable) [1, 3] | fibrosis stage at the end of the study (primary effect variable) [1, 3] | fibrosis, comparing baseline and end-of study biopsies ([1]; 6 weeks QD PO, post versus pre-treatment) | overall effect on histology (NAFLD Activity Score, fibrosis stage) [2] | effect of treatment on NASH (two mouse models of NASH)
1 | OC[C@H]1O[C@@H](c2ccc(F)c(Cc3cc4ccccc4s3)c2)[C@H](O)[C@@H](O)[C@@H]1O [Ipragliflozin, ipragliflozin] | not significant | non-significant | – | – | – | – | – | – | – | –
2 | Cc1ccc([C@@H]2O[C@H](CO)[C@@H](O)[C@H](O)[C@H]2O)cc1Cc1ccc(-c2ccc(F)cc2)s1 [Canagliflozin, canagliflozin] | not significant | non-significant | – | – | – | – | – | – | – | –
3 | CCOc1ccc(Cc2cc([C@@H]3O[C@H](CO)[C@@H](O)[C@H](O)[C@H]3O)ccc2Cl)cc1 [Dapagliflozin, dapagliflozin] | not significant | non-significant | tend to reduce liver fat content | reduce body fat content | High selectivity for SGLT2 | No effects | No effects | reduced fibrosis | no effect | did not show any effect
